Measurements taken from publication PMC8253220, “Molecular design, synthesis and in vitro biological evaluation of thienopyrimidine–hydroxamic acids as chimeric kinase HDAC inhibitors: a challenging approach to combat cancer” (Journal of Enzyme Inhibition and Medicinal Chemistry, 2021).

What was measured:
Assay type in all cases: biochemical
[1] = target: VEGFR-2 (Homo sapiens, UniProt P35968); assay: In vitro VEGFR-2 tyrosine kinase inhibitory assay (Z'-LYTE, SelectScreen)
Protocol: The target compounds were evaluated for their in vitro inhibitory activities against EGFR, VEGFR-2, and HDAC6. The EGFR and VEGFR-2 inhibitory assays were performed at Thermo Fischer Scientific, Madison, WI, USA (SelectScreenServices@thermofisher.com). The HDAC inhibitory assays were performed at BPS Bioscience, San Diego, CA, USA (www.bpsbioscience.com). Initially, all of the synthesised target compounds were evaluated for their percent inhibitory activity against EGFR, VEGFR-2, and HDACs at 10 µM single dose concentration, in which their mean percent inhibition is summarised in (Figure 5, Tables 1 and [2]). Representative compounds were evaluated for their percent inhibitory activity against EGFR and VEGFR-2 at 6 different concentrations (0.1 nM, 1 nM, 10 nM, 100 nM, 1 µM, 10 µM) to subsequently calculate their IC50 values (Table 3). Additionally, all of the synthesised target compounds were submitted to the National Cancer Institute “NCI” Bethesda, Maryland, USA (www.dtp.nci.nih.gov), to evaluate theirs in vitro antiproliferative activities against NCI 60- cancer cell line panel.
In vitro enzyme inhibition determination for the synthesised compounds was carried out in Thermo Fischer Scientific, Madison, WI, USA (SelectScreenServices@thermofisher.com). The EGFR and VEGFR-2 tyrosine kinase % inhibitory activity at a single-dose concentration of 10 µM was performed initially then representative compounds were evaluated at single-dose concentrations of (0.1 nM, 1 nM, 10 nM, 100 nM, 1 µM) using ZYLTE technology. A fluorescence-based, coupled-enzyme format is employed in the biochemical assay and depends on the sensitivity of proteolytic cleavage to non-phosphorylated and phosphorylated peptides. Then IC50 values for selected compounds were determined by GraphPad Prism at Misr international university.

[2] = target: T1, HDAC6 (Homo sapiens, UniProt Q9UBN7); assay: In vitro HDAC6 inhibitory assay (BPS Bioscience, fluorogenic); settings: 10 µM
T1 construct: purchased BPS Bioscience 50006
T1 sequence (Q9UBN7 1-1215): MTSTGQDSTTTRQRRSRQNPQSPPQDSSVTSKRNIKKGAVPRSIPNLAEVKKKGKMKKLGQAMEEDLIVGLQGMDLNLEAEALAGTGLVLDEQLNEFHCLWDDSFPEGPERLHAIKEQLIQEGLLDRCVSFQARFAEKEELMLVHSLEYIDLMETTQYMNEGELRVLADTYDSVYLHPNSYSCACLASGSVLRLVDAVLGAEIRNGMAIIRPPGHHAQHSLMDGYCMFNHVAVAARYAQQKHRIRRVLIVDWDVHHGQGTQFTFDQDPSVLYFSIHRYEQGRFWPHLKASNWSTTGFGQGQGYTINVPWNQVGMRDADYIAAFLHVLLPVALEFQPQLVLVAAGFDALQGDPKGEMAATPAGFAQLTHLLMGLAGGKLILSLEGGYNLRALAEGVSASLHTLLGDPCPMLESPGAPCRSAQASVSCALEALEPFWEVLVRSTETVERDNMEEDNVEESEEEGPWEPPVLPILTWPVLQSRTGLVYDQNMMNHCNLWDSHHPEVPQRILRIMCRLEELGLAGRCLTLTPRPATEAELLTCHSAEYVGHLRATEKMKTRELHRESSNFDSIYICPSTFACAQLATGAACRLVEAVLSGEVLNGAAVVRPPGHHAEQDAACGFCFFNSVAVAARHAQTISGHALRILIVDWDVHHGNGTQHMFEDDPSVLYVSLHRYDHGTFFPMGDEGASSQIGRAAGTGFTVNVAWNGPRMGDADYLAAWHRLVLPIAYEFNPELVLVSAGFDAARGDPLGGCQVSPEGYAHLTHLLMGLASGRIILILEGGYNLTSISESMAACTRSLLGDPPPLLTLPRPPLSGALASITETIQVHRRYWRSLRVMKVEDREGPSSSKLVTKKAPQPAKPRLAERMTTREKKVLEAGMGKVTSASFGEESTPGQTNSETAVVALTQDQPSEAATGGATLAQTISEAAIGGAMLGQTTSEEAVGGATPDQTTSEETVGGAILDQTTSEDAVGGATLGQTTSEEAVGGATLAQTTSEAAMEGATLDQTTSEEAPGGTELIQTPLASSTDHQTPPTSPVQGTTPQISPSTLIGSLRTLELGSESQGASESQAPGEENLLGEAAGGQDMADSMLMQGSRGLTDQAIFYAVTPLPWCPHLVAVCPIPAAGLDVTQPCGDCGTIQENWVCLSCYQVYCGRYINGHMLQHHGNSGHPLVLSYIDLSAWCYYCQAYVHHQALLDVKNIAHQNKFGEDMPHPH
Protocol: (1 picture or pasted object on this page, not shown here)
HDAC activity assays were performed in duplicates at each concentration. The

[3] = test system: Hela nuclear extracts; assay: Hela nuclear extract HDAC inhibitor assay (BPS Bioscience); settings: 10 µM
Protocol: The purpose of the study is to determine the effects of twenty compounds from Misr International University on the enzymatic activities of hela nuclear extracts using an in vitro […]
7a Solution 10mM DMSO 10 10 % DMSO in
7b Solution 10mM DMSO 10 10 % DMSO in
7d Solution 10mM DMSO 10 10 % DMSO in
2.3 Experimental Conditions
2.3.1 Enzymes and Substrates
Assay Catalog # Substrate
Hela Nuclear Exctract 50053 10 µM HDAC Substrate 3
For the hela nuclear extracts, hela cells were grown to 90 % confluency. Hela nuclear extracts were prepared from the Nuclear Extraction Kit from abcam (Catalog # ab113474). The final total protein concentration was calculated to be 2.4 µg/µl. From this, the hela nuclear extracts was diluted 20-fold in HDAC assay buffer and 5 µl of the dilution was added to a 50 µl reaction.
The compounds are dissolved in DMSO. A series of dilutions of the compounds were prepared with 10% DMSO in HDAC assay buffer and 5 µl of the dilution was added to a 50 µl reaction so that the final concentration of DMSO is 1 % in all of […]
The enzymatic reactions for the hela nuclear extract were conducted in duplicate at 37 °C for 60 minutes in a 50 µl mixture containing HDAC assay buffer, 5 µg BSA, an HDAC substrate (see 2.3.1), hela nuclear extract, and a test compound (see 2.2).
After enzymatic reactions, 50μl of 2 x HDAC Developer was added to each well for the hela nuclear extract and the plate was incubated at room temperature for an additional 15 […]
Fluorescence intensity was measured at an excitation of 360 nm and an emission of 460 nm using a Tecan Infinite M1000 microplate reader.
Hela nuclear extract activity assays were performed in duplicates at each concentration.
The fluorescent intensity data were analyzed using the computer software, Graphpad Prism. In the absence of the compound, the fluorescent intensity (Ft) in each data set was defined as 100% activity. In the absence of hela nuclear extract, the fluorescent intensity (Fb) in each data set was defined as 0% activity. The percent activity in the presence of each compound was calculated according to the following equation: %activity = (F-Fb)/(Ft-Fb), where F= the fluorescent intensity in the presence of the compound.
The values of percentage activity were plotted on a bar graph.

Chain of VEGFR-2 (P35968 20-1356): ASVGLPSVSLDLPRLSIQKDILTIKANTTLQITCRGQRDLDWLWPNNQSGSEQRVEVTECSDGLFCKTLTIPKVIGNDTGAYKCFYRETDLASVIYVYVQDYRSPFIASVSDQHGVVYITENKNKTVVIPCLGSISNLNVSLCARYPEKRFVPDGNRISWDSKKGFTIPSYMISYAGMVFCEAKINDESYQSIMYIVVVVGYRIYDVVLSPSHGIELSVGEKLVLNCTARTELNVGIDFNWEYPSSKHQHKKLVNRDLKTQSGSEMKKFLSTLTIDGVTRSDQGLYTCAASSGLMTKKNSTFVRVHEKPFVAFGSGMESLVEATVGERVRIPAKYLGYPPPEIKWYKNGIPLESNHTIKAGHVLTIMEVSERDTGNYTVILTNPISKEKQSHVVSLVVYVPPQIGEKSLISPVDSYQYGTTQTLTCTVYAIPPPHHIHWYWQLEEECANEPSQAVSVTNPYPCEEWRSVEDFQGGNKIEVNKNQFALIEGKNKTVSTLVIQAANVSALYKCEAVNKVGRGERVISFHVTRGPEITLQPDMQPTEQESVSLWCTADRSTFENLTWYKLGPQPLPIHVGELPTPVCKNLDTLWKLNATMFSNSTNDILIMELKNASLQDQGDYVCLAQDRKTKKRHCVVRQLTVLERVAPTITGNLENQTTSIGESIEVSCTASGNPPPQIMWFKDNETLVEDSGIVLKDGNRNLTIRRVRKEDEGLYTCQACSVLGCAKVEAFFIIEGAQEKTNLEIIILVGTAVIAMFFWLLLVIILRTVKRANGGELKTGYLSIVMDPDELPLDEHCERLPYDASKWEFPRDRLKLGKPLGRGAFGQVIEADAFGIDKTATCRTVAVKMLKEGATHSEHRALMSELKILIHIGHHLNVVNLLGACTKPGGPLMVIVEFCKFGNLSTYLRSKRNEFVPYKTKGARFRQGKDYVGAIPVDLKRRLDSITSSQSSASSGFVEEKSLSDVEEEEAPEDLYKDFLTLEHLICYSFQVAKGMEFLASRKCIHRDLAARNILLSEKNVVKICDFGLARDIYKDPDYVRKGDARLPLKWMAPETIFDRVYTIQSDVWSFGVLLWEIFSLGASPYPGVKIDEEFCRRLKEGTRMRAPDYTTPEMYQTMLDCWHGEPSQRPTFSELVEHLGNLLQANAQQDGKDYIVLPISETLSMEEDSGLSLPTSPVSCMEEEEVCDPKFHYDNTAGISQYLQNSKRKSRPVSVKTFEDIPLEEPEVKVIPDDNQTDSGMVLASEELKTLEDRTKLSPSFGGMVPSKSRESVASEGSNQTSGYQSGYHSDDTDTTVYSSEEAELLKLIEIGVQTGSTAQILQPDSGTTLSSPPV

In the case of `Cc1c(C(=O)NCCC(=O)NO)sc2ncnc(Nc3ccc(Cl)cc3)c12` [Compound 19c, 4–(4-chlorophenylamino)-N-(3-(hydroxyamino)-3-oxopropyl)-5-methylthieno[2,3-d]pyrimidine-6-carboxamide], the inhibition at 10 µM ([1]; 10 µM single dose) is reported as 21%, the “Mean % inhibition HDAC6” value [2] is reported as 9% and the inhibition at 10 µM [2] is reported as 7%. The “% Inhibition Hela Nuclear Extracts” value [3] was 7%.
For `Cc1c(C(=O)NCCCC(=O)NO)sc2ncnc(Nc3ccc(NC(=O)Nc4ccccc4)cc3)c12` [Compound 12a, 1–(4-(6-((4-(hydroxyamino)-4-oxobutyl)carbamoyl)-5-methylthieno[2,3-d]pyrimidin-4-ylamino)phenyl)-3-phenylurea], the inhibition at 10 µM ([1]; 10 µM single dose) was 48%, the inhibition at 10 µM [2] was 7% and the “% Inhibition Hela Nuclear Extracts” value [3] was 2%.
`Cc1c(C(=O)NCCC(=O)NO)sc2ncnc(Nc3ccc(F)c(Cl)c3)c12` [Compound 19d, 4–(3-chloro-4-fluorophenylamino)-N-(3-(hydroxyamino)-3-oxopropyl)-5-methylthieno[2,3-d]pyrimidine-6-carboxamide] was tested, and the inhibition at 10 µM ([1]; 10 µM single dose) was 26%, the “Mean % inhibition HDAC6” value [2] was 0% and the “% Inhibition Hela Nuclear Extracts” value [3] was 2%.
Work on `Cc1c(C(=O)NO)sc2ncnc(Nc3ccc(NC(=O)Nc4cccc(C(F)(F)F)c4)cc3)c12` [Compound 7c, 1–(4-(6-(hydroxycarbamoyl)-5-methylthieno[2,3-d]pyrimidin-4-ylamino)phenyl)-3–(3-(trifluoromethyl)phenyl)urea] yielded an inhibition at 0.0001 µM ([1]; 0.1 nM compound, 10 μM ATP, read-out: % Inhibition mean, KDR (VEGFR2)) of 6%, an inhibition at 0.001 µM ([1]; 1 nM compound, 10 μM ATP, read-out: % Inhibition mean, KDR (VEGFR2)) of 6% and an inhibition at 0.01 µM ([1]; 10 nM compound, 10 μM ATP, read-out: % Inhibition mean, KDR (VEGFR2)) of 2%. For the same molecule, the inhibition at 0.1 µM ([1]; 100 nM compound, 10 μM ATP, read-out: % Inhibition mean, KDR (VEGFR2)) was 36%, the inhibition at 1 µM ([1]; 1000 nM compound, 10 μM ATP, read-out: % Inhibition mean, KDR (VEGFR2)) was 90% and the “Mean % inhibition VEGFR-2” value ([1]; 10 µM single dose) was 100%. It also gave an inhibition at 10 µM ([1]; 10 µM single dose) of 104%, an IC50 ([1]; read-out: IC50 in enzyme assays VEGFR-2) of 191 nM and an inhibition at 10 µM [2] of 8%. The “% Inhibition Hela Nuclear Extracts” value [3] was 3%.
`Cc1c(C(=O)NO)sc2ncnc(Nc3ccc(F)c(Cl)c3)c12` [Compound 15d, 4–(3-chloro-4-fluorophenylamino)-N-hydroxy-5-methylthieno[2,3-d]pyrimidine-6-carboxamide] was tested, and the inhibition at 10 µM ([1]; 10 µM single dose) was 54%, the “Mean % inhibition HDAC6” value [2] was 4% and the inhibition at 10 µM [2] was 7%. For the same molecule, the “% Inhibition Hela Nuclear Extracts” value [3] was 4%.
In the case of `Cc1c(C(=O)NO)sc2ncnc(Nc3cccc4[nH]cnc34)c12` [Compound 15a, 4-(1H-benzo[d]imidazol-4-ylamino)-N-hydroxy-5-methylthieno[2,3-d]pyrimidine-6-carboxamide], the inhibition at 10 µM ([1]; 10 µM single dose) is reported as 36%, the “Mean % inhibition HDAC6” value [2] is reported as 8% and the inhibition at 10 µM [2] is reported as 7%. For the same molecule, the “% Inhibition Hela Nuclear Extracts” value [3] was 3%.
With `Cc1c(C(=O)NCCC(=O)NO)sc2ncnc(Nc3ccc(NC(=O)Nc4ccccc4)cc3)c12` [Compound 11a, 1–(4-(6-((3-(hydroxyamino)-3-oxopropyl)carbamoyl)-5-methylthieno[2,3-d]pyrimidin-4-ylamino)phenyl)-3-phenylurea] the inhibition at 10 µM ([1]; 10 µM single dose) was 47%, the “Mean % inhibition HDAC6” value [2] was 7% and the inhibition at 10 µM [2] was 5%. The “% Inhibition Hela Nuclear Extracts” value [3] was 0%.
With `Cc1c(C(=O)NCCC(=O)NO)sc2ncnc(Nc3ccc(NC(=O)Nc4cccc(C(F)(F)F)c4)cc3)c12` [Compound 11c, 1–(4-(6-((3-(hydroxyamino)-3-oxopropyl)carbamoyl)-5-methylthieno[2,3-d]pyrimidin-4-ylamino)phenyl)-3–(3-(trifluoromethyl)phenyl)urea] the inhibition at 10 µM ([1]; 10 µM single dose) was 91%, the inhibition at 10 µM [2] was 8% and the “% Inhibition Hela Nuclear Extracts” value [3] was 5%.
